Here are results for 1 compound from ChEMBL document CHEMBL1131750, “A substrate combinatorial array for caspases” (Bioorg Med Chem Lett, 1999).

What all share (format): ADME
Series [1] can be described thus: Kinetic Constant of Ac-YVAD-AMC for compound.
Series [2] is described as follows: Kinetic Constant of Ac-WVAD-AMC for compound.
The nature of series [3]: Kinetic Constant of Ac-WEAD-AMC for compound.
Series [4] in a line: Vmax value of Ac-YVAD-AMC substrate for compound.
Series [5] is described as follows: Km value of Ac-YVAD-AMC substrate for compound.

Peptide text beside a SMILES is read from it. * marks the point of attachment. AMC = Cc1cc(=O)oc2cc(N*)ccc12

The term Km denotes the substrate concentration at which the rate is half of its maximum. As to `CC(=O)NCC(=O)NCC(=O)N[C@@H](C)C(=O)N[C@@H](CC(=O)O)C(=O)Nc1ccc2c(C)cc(=O)oc2c1` (Ac-GGAD-{AMC}), the “Vmax / Km” value in series [1] was 53 FU min-1 uM-1; in series [2] it was 48 FU min-1 uM-1; in series [3], 204 FU min-1 uM-1. Also, the results for the Km in series [2], in series [3] and in series [5] were 27 µM, 9 µM and 20 µM, respectively. For the same compound, the values for the Vmax in series [2], in series [3] and in series [4] were 1300 FU uM-1, 1840 FU uM-1 and 1060 FU uM-1, respectively.
